For series [1], the system named is C5a stimulated neutrophil. Kind of series: Increase of intracellular Ca2+ concentration of C5a stimulated neutrophil. Type of series: cell-based. Particulars: human neutrophils. On the procedure:
A neutrophil fraction was separately taken from human peripheral venous blood using Lympholyte-poly (Cedarlane), and suspended in Hank's Balanced Salt Solution (HBSS, GIBCO BRL) supplemented with 1% fetal bovine serum (FBS). Then, Fura 2-AM (final concentration 5 μM, DOJINDO) was added to the neutrophil fraction (5×10^6 cells/mL), and the mixture was incubated at 37° C. for 40 min. The cells were washed by centrifugation and suspended to the concentration of 1×10^6 cells/mL. The intracellular Ca^2+ concentration was measured using a spectrophotofluorometer (CAF-110, JASCO Corporation), and calculated from the ratio (Ex340 value/Ex380 value) of fluorescent intensities at 500 nm upon excitation at 340 nm and 380 nm, the former being Ex340 value, the latter being Ex380 value. […] Then, Triton X-100 (final concentration 0.2%) was added and the cells were dissolved, and sb2 value, which was the […] then, and Rmax value, which was the Ex340 value/Ex380 value then, was measured. Then, EGTA (final concentration 3 mmol/L) was added and sf2 value, which was the […] then, and Rmin value, which was the Ex340/Ex380 value then, was measured. From these measurement results, the intracellular Ca^2+ concentration was calculated from the following formula. […]

In series [2] the test system is C5a-stimulated neutrophil. Kind of series: Migrating ability of C5a-stimulated neutrophil. Particulars: 1.5 h, human neutrophils, C5a 100 pmol/L, 90 min, read-out: IC50 value, concentration at which migration of C5a-stimulated neutrophil is inhibited by 50%. It counts as cell-based. As for the experimental part:
A neutrophil fraction was separately taken from human peripheral venous blood using Lympholyte-poly (Cedarlane) and suspended in RPMI 1640 medium (GIBCO BRL) supplemented with 0.1% bovine serum albumin (BSA). To. this neutrophil fraction (5×10^6 cells/mL) was added Calcein-AM (final concentration 5 μM, FUNAKOSHI), and the mixture was incubated at 37° C. for 30 min. The cells were washed by centrifugation and suspended to a concentration of 1×10^6 cells/mL. The migration was evaluated by adding neutrophils to chemotaxicell (pore size: 3 μm, KURABO) and measuring the neutrophils that migrated outside the chemotaxicell. First, 100 pmol/L of C5a solution was added to 24 well plate (500 μL/well) and chemotaxicell was set in the well. […] The fluorescent intensity of each well was measured by Cyto Fluor II (Ex: 485, Em: 530). The rate (% inhibition) of the inhibition of migration of C5a-stimulated neutrophil by the test compound was calculated by the following formula, wherein the fluorescence intensity of neutrophil that migrated by C5a stimulation without addition of the test compound is Max, the fluorescent intensity of neutrophil that migrated without addition of test compound and without C5a stimulation is Min, and the fluorescent intensity of neutrophil that migrated by C5a stimulation with the addition of the test compound is Test. % Inhibition=100−[(Test-Min)/(Max-Min)]×100 […]

The test system of series [3] is C5a stimulated neutrophil. Kind of series: Production of reactive oxygen species in C5a stimulated neutrophil. Type of series: cell-based. Particulars: human neutrophils, C5a 3 nmol/L, luminol luminescence; read-out: IC50 value, concentration at which production of reactive oxygen species in C5a stimulated neutrophil is inhibited by 50%. On the procedure: A neutrophil fraction was separately taken from human peripheral venous blood using Lympholyte-poly (Cedarlane), and suspended in Hank's Balanced Salt Solution (HBSS, GIBCO BRL) containing 1% fetal bovine serum (FBS) and 1 mmol/L of luminol (Wako Pure Chemical Industries, Ltd.). Reactive oxygen species was measured using a luminometer (MicroLumat, Berthold) for 96 well plate. […] Then, 25 μL of C5a (final concentration 3 nmol/L) was added and luminescence produced by the reaction of the luminol and the reactive oxygen species was measured with the lapse of time for 15 min. The rate (% inhibition) of inhibition of the production of reactive oxygen species in C5a stimulated neutrophil by the test compound was calculated by the following formula, wherein the peak value of the production of reactive oxygen species derived by C5a without addition of the test compound is Max, the peak value of the production of reactive oxygen species without addition of the test compound and without C5a stimulation is Min, and the peak value of the production of reactive oxygen species derived by C5a with the addition of the test compound is Test. % Inhibition=100−[(Test-Min)/(Max-Min)]×100 […]

Molecules are shown by their SMILES. pIC50: −log10 of the molar value.

As usually defined, the melting point is the temperature of the solid-liquid transition. As to `CC(C)c1ccc(N(Cc2ccc(N(C)C)cc2)C(=O)C2CCCc3ccccc32)cc1` (centres unmarked) [Example 4, N-[(4-dimethylaminophenyl)methyl]-N-(4-isopropylphenyl)-1,2,3,4-tetrahydronaphthalene-1-carboxamide], the melting point was found to be 121 °C. Also, the “agonistic action (increase in intracellular Ca2+ by the compound alone)” value in series [1] (compound 3 μmol/L) was “did not induce an increase in intracellular Ca^2+ and the agonistic action was not found”. In addition, the pIC50 in series [1] (recombinant human C5a 100 pmol/L, read-out: IC50 value, concentration at which increase in intracellular Ca2+ concentration of C5a-stimulated neutrophil is inhibited by 50%) was 8.30. In series [2], the pIC50 is 7.00. For the same compound, the pIC50 in series [3] was 8.00.
